Source: US8541460B2, “PDK-1/Akt signaling inhibitors” (The Ohio State University, priority 2003, dated 2013)

Legend:
recombinant PDK-1 = biological target: T1, recombinant PDK-1 (Homo sapiens, UniProt O15530); assay: PDK-1 kinase activity (Upstate kit, cell-free); format: biochemical
T1 construct: purchased Upstate (Lake Placid, N.Y.)
T1 sequence (O15530 1-556): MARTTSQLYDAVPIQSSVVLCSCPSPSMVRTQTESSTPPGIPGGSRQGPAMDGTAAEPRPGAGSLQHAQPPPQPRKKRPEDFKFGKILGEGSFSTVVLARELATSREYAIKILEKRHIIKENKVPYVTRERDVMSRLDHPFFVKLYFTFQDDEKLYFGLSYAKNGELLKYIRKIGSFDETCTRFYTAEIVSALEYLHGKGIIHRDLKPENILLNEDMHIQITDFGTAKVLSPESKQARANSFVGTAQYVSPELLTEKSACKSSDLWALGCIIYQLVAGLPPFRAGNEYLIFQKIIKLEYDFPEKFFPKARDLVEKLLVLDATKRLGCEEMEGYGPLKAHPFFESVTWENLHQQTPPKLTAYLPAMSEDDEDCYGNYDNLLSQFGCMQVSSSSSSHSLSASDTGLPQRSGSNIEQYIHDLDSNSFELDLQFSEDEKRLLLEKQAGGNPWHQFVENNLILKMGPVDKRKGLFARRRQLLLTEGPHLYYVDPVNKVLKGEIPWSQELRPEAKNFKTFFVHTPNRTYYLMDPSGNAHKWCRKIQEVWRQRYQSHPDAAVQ
Protocol: PDK-1 kinase activity This in vitro assay was performed using a PDK-1 kinase assay kit (Upstate, Lake Placid, N.Y.) according to the vendor's instructions. This cell-free assay is based on the ability of recombinant PDK-1, in the presence of DMSO vehicle or the test agent, to activate its downstream kinase serum- and glucocorticoid-regulated kinase (SGK.) which, in turn, phosphorylates the Akt/SGK-specific peptide substrate RPRAATF with [γ-^32]-ATP. […] The reported values represent the means of two independent determinations.

SF-295 = assay: NCI DTP cell line screen (SRB), CNS Cancer; format: cell-based
Protocol: (§1) Screening of compounds 70 and 71 against several cancer cell lines The human tumor cell lines of the cancer screening panel are grown in RPMI 1640 medium containing 5% fetal bovine serum and 2 mM L-glutamine. For a typical screening experiment, cells are inoculated into 96 well microtiter plates in 100 μL at plating densities ranging from 5,000 to 40,000 cells/well depending on the doubling time of individual cell lines. After cell inoculation, the microtiter plates are incubated at 37° C., 5% CO2, 95% air and 100% relative humidity for 24 h prior to addition of experimental drugs.
(§2) After 24 h, two plates of each cell line are fixed in situ with TCA, to represent a measurement of the cell population for each cell line at the time of drug addition (Tz). Experimental drugs are solubilized in dimethyl sulfoxide at 400-fold the desired final maximum test concentration and stored frozen prior to use. At the time of drug addition, an aliquot of frozen concentrate is thawed and diluted to twice the desired final maximum test concentration with complete medium containing 50 μg/ml gentamicin. Additional four, 10-fold or ½ log serial dilutions are made to provide a total of five drug concentrations plus control. Aliquots of 100 μl of these different drug dilutions are added to the appropriate microtiter wells already containing 100 μl of medium, resulting in the required final drug concentrations.
(§3) Following drug addition, the plates are incubated for an additional 48 h at 37° C., 5% CO2, 95% air, and 100% relative humidity. For adherent cells, the assay is terminated by the addition of cold TCA. Cells are fixed in situ by the gentle addition of 50 μl of cold 50% (w/v) TCA (final concentration, 10% TCA) and incubated for 60 minutes at 4° C. The supernatant is discarded, and the plates are washed five times with tap water and air dried. Sulforhodamine B (SRB) solution (100 μl) at 0.4% (w/v) in 1% acetic acid is added to each well, and plates are incubated for 10 minutes at room temperature. After staining, unbound dye is removed by washing five times with 1% acetic acid and the plates are air dried. Bound stain is subsequently solubilized with 10 mM trizma base, and the absorbance is read on an automated plate reader at a wavelength of 515 nm. For suspension cells, the methodology is the same except that the assay is terminated by fixing settled cells at the bottom of the wells by gently adding 50 μl of 80% TCA (final concentration, 16% TCA). Using the seven absorbance measurements [time zero, (Tz), control growth, (C), and test growth in the presence of drug at the five concentration levels (Ti)], the percentage growth is calculated at each of the drug concentrations levels. Percentage growth inhibition is calculated as: [(Ti−Tz)/(C−Tz)]×100 for concentrations for which Ti>/=Tz [(Ti−Tz)/Tz]×100 for concentrations for which Ti<Tz
(§4) Three dose response parameters are calculated for each experimental agent. […] The drug concentration resulting in total growth inhibition (TGI) is calculated from Ti=Tz. […] Values are calculated for each of these three parameters if the level of activity is reached; however, if the effect is not reached or is exceeded, the value for that parameter is expressed as greater or less than the maximum or minimum concentration tested.
(§5) The methods described were used to test compounds 70 and 71 on a panel of sixty cell lines under a screening service provided by the Developmental Therapeutics Program at the National Institutes of Health. Shown in FIG. 1C are 1, RPMI-8226 leukemia cells; 2; NCI-H322M non-small cell lung cancer cells; 3, HT29 colon cancer cells; 4, U251 CNS cancer cells; 5, SK-MEL-28 melanoma cancer cells; 6, SK-OV-3 ovarian cancer cells; 7, RXF 393 renal cancer cells; 8, PC-3 prostate cancer cells; 9, MDA-MB-231 breast cancer cells.

SF-268 = assay: NCI DTP cell line screen (SRB), CNS Cancer; format: cell-based
Protocol: as §1, §2, §3, §4, §5

PC-3 cells = assay: PC-3 cell viability analysis (MTT); format: cell-based, human; conditions: inducing apoptotic death in PC-3 cells / PC-3 cell viability; read-out: IC50 PC-3
Protocol: Cell Culture PC-3 (p53−/−) human androgen-nonresponsive prostate cancer cells were purchased from the American […] (Manassas, Va.). Cells were cultured in RPMI 1640 medium (Gibco, Grand Island, N.Y.) supplemented with 10% fetal bovine serum (FBS; Gibco) at 37° C. in a humidified incubator containing 5% CO2.
Cell viability analysis The effect of 4-[5-(4-methylphenyl)-3-(trifluoromethyl)-1H-pyrazol-1-yl]benzenesulfonamide and its derivatives on PC-3 cell viability was assessed by using the MTT {[3-(4,5-dimethylthiazol-2-yl)-2,5-diphenyl-2H-tetrazolium bromide]} assay in six replicates. Cells were grown in 10% FBS-supplemented RPMI 1640 medium in 96-well, flat bottomed plates for 24 h, and were exposed to various concentrations of compounds 1-36 dissolved in DMSO (final concentration≦0.1%) in 1% serum-containing RPMI 1640 medium for different time intervals. Controls received DMSO vehicle at a concentration equal to that in drug-treated cells. The medium was removed, replaced by 200 μl of 0.5 mg/ml of MTT in 10% FBS-containing RPMI-1640 medium, and cells were incubated in the CO2 incubator at 37° C. for 2 h. Supernatants were removed from the wells, and the reduced MTT dye was solubilized in 200 μL/well DMSO. Absorbance at 570 nm was determined on a plate reader.

Row | Structure (SMILES) | increase in potency over compound 59 (PDK-1 inhibition) (recombinant PDK-1) | TGI (SF-295) | Percent Growth (SF-295; Log10 Concentration −4.0) [%] | Percent Growth (SF-295; Log10 Concentration −5.0) [%] | Percent Growth (SF-295; Log10 Concentration −6.0) [%] | Percent Growth (SF-295; Log10 Concentration −7.0) [%] | Percent Growth (SF-295; Log10 Concentration −8.0) [%] | TGI (SF-268) | Percent Growth (SF-268; Log10 Concentration −4.0) [%] | Percent Growth (SF-268; Log10 Concentration −5.0) [%] | Percent Growth (SF-268; Log10 Concentration −6.0) [%] | Percent Growth (SF-268; Log10 Concentration −7.0) [%] | Percent Growth (SF-268; Log10 Concentration −8.0) [%] | IC50 (PC-3 cells) [µM]
1 | NCC(=O)Nc1ccc(-n2nc(C(F)(F)F)cc2-c2ccc3c(ccc4ccccc43)c2)cc1 [Compound 70, 2-Amino-N-{4-[5-(2-phenanthrenyl)-3-(trifluoromethyl)-1H-pyrazol-1-yl]-phenyl}-acetamide] | two | 3.71E−06 | −32 | −47 | 62 | 96 | 94 | 4.16E−06 | 26 | −33 | 54 | 72 | 84 | 
2 | N=C(N)Nc1ccc(-n2nc(C(F)(F)F)cc2-c2ccc3c(ccc4ccccc43)c2)cc1 [Compound 71, 4-[5-(2-Phenanthrenyl)-3-(trifluoromethyl)-1H-pyrazol-1-yl]-phenyl-guanidine] |  |  |  |  |  |  |  |  |  |  |  |  |  | 3
